Reference: patent US20250195453A1, “NOVEL ANTIBIOTIC WITH QUORUM SENSING INHIBITOR ACTIVITY” (priority 2022, published 2025)

How the values were obtained:
[1] = test system: violacein production in C. violaceum; assay: Quorum sensing assay: violacein production in C. violaceum; assay type: cell-based, Chromobacterium violaceum; settings: funalenone up to 1 mM
Experimental: C. violaceum bacteria were grown o/n in tryptic soy broth at 27° C. The bacteria were diluted in TSB and grown until OD600=0.5-0.7. Bacteria were diluted 1:1000 and 50 μL bacterial suspension was transferred to 96-well plates containing 50 μL fungal filtrate, extract or purified compound in a range of concentrations. […] Plates were incubated for 20 h at 27° C. while shaking at 180 rpm. Plates were centrifuged for 10 min at 3000 rpm to precipitate the violacein. Supernatant was aspirated and the pellet was resuspended in 200 μL 96% ethanol. The plates were centrifuged again for 10 min at 3000 rpm and 100 μL of the supernatant containing the violacein was transferred to a new 96-well plate and the violacein production was quantified by measuring the OD562 on an ASYS expert plus microplate reader.

C. violaceum = assay: Viability assay (resazurin) of C. violaceum in parallel to quorum sensing assay; assay type: cell-based, Chromobacterium violaceum; settings: assays in parallel with the quorum sensing assays
Experimental: To ascertain that reduced OD562 signal is due to inhibition of quorum sensing and not merely due to reduced viability of bacteria, a viability assay may be done in parallel to the quorum sensing assay. To assess viability of bacteria, C. violaceum bacteria are grown o/n at 27° C. in TSB medium. The bacteria are diluted 1000× in TSB medium and grown until OD600=0.5-0.7. The bacteria are resuspended in TSB medium containing compound and incubated at 27° C. for 20 h. Bacteria are collected by centrifugation for 10 min at 3000 rpm. Supernatant is aspirated and resazurin (150 μg/mL in physiological salt solution) is added. Plates are incubated for another 45 min at 27° C. and fluorescence is measured by excitation at 540 nm and emission at 590 nm. If the fluorescent signal is less than 70% of the fluorescent signal of control untreated bacteria, the sample is scored as having an effect on viability of the bacteria.
C. violaceum bacteria were grown o/n in tryptic soy broth at 27° C. The bacteria were diluted in TSB and grown until OD600=0.5-0.7. […] The plates were centrifuged again for 10 min at 3000 rpm and 100 μL of the supernatant containing the violacein was transferred to a new 96-well plate and the violacein production was quantified by measuring the OD562 on an ASYS expert plus microplate reader. […]

lasB-GFP reporter = assay: PAO1 quorum sensing reporter assay, lasB-GFP; assay type: cell-based, Pseudomonas aeruginosa (PAO1); settings: funalenone concentrations up to 500 μM
Experimental: (§1) Quorum sensing activity in PAO1 cells can be assessed by a the person skilled in the art, preferably by a quorum sensing reporter assay as exemplified herein. PAO1 reporters express green fluorescent protein under the control of the lasB promoter, the rhlA promoter, the pqsA promoter or a constitutive promoter, PA1/04/03. Reporter bacteria are inoculated in AB minimal media supplemented with 0.5% glucose and 0.5% casamino acids. Cultures are diluted in physiological salt solution to an OD450=0.1-0.2 before addition to AB medium with a range of concentrations of compound. The GFP fluorescence (excitation 485 nm, emission 535 nm) and absorbance (600 nm) are determined every 15 min for 15 h at 34° C. IC50 values are calculated based on the maximum slope of GFP/OD. If the IC50 on reporter lines is less than half of the IC50 on control bacteria, the compound is scored as quorum sensing inhibitor.
(§2) To test the potential of paecilomycone as quorum sensing inhibitor in more clinically relevant bacteria, the effect on P. aeruginosa (PAO1) was tested. […] To correct for potential effects on bacterial growth, the OD600 was determined in parallel with GFP fluorescence intensity and RFU/OD was plotted.

rhlA-GFP reporter = assay: PAO1 quorum sensing reporter assay, rhlA-GFP; assay type: cell-based, Pseudomonas aeruginosa (PAO1); settings: funalenone concentrations up to 500 μM
Experimental: as §1, §2

pqsA-GFP reporter = assay: PAO1 quorum sensing reporter assay, pqsA-GFP; assay type: cell-based, Pseudomonas aeruginosa (PAO1); settings: funalenone concentrations up to 500 μM
Experimental: as §1, §2

WT-GFP = assay type: cell-based, Pseudomonas aeruginosa (PAO1); settings: funalenone concentrations up to 500 μM
Experimental: as §1, §2

## COC1=C(O)c2c(O)cc(C)c3c(O)cc(O)c(c23)C1=O [funalenone]
[1]
  Inhibition of violacein production: did not inhibit violacein production
C. violaceum
  Effect on cell viability of C. violaceum: did not affect cell viability
lasB-GFP reporter
  Effect on quorum sensing, lasB-GFP reporter: no effects on quorum sensing
rhlA-GFP reporter
  Effect on quorum sensing, rhlA-GFP reporter: no effects on quorum sensing
pqsA-GFP reporter
  Effect on quorum sensing, pqsA-GFP reporter: no effects on quorum sensing
WT-GFP
  Effect on control WT-GFP reporter: no effects on quorum sensing
